The source of these data is PubChem BioAssay AID248 (DTP/NCI, 2004).

For the assay, the system named is L1210 leukemia ip in BDF1 mice, survival T/C. The assay can be described thus: NCI In Vivo Anticancer Drug Screen. Data for tumor model L1210 Leukemia (intraperitoneal) in B6D2F1 (BDF1) mice. Particulars: endpoint: mean survival time, higher = longer survival. The gist of the method:
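Value reflects the ratio of survival in compound-treated mice to survival in vehicle-treated controls, with both groups carrying the same transplanted tumor.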

Setting [1] is: dose: 100.0 mg/kg/injection, schedule: Q01DX001 (ip), vehicle: Klucel (hydroxypropylcellulose) (HPC).
Setting [2] is: dose: 100.0 mg/kg/injection, schedule: Q04DX002 (ip), vehicle: Klucel (hydroxypropylcellulose) (HPC).
Where [3] appears, read: dose: 200.0 mg/kg/injection, schedule: Q04DX002 (ip), vehicle: Klucel (hydroxypropylcellulose) (HPC).
[4] abbreviates: dose: 100.0 mg/kg/injection, schedule: Q01DX009 (ip), vehicle: Klucel (hydroxypropylcellulose) (HPC).
Where [5] appears, read: dose: 100.0 mg/kg/injection, schedule: Q04DX003 (ip), vehicle: Klucel (hydroxypropylcellulose) (HPC).
[6] abbreviates: dose: 200.0 mg/kg/injection, schedule: Q01DX001 (ip), vehicle: Klucel (hydroxypropylcellulose) (HPC).
Where [7] appears, read: dose: 400.0 mg/kg/injection, schedule: Q01DX001 (ip), vehicle: Klucel (hydroxypropylcellulose) (HPC).
Where [8] appears, read: dose: 400.0 mg/kg/injection, schedule: Q01DX009 (ip), vehicle: Klucel (hydroxypropylcellulose) (HPC).

“And” between values parts separate entries of the source, which are not always exact repeats. Equal entries are not always repeated. Inconclusive results and toxic doses are left out.

For the molecule `CCOC(=O)Cc1c[nH]c2ccc(N(CCCl)CCCl)cc12`, the T/C is 121 % of control (dose: 0.55 mg/kg/injection, schedule: Q01DX009 (ip), vehicle: carboxymethylcellulose (CMC)); 151 % of control (dose: 1.5 mg/kg/injection, schedule: Q01DX009 (ip), vehicle: carboxymethylcellulose (CMC)); 152 % of control (dose: 2.2 mg/kg/injection, schedule: Q01DX009 (ip), vehicle: other); 160 % of control and 177 % of control (dose: 3.1 mg/kg/injection, schedule: Q01DX009 (ip), vehicle: carboxymethylcellulose (CMC)); 152 % of control (dose: 3.4 mg/kg/injection, schedule: Q01DX009 (ip), vehicle: other); 168 % of control (dose: 4.8 mg/kg/injection, schedule: Q01DX009 (ip), vehicle: carboxymethylcellulose (CMC)). Moreover, the T/C (dose: 5.0 mg/kg/injection, schedule: Q01DX009 (ip), vehicle: other) was 169 % of control; the T/C (dose: 7.0 mg/kg/injection, schedule: Q01DX009 (ip), vehicle: carboxymethylcellulose (CMC)) was 157 % of control; the T/C (dose: 7.0 mg/kg/injection, schedule: Q01DX009 (ip), vehicle: other) is 176 % of control; the T/C (dose: 7.3 mg/kg/injection, schedule: Q01DX001 (ip), vehicle: carboxymethylcellulose (CMC)) was 120 % of control; the T/C (dose: 7.3 mg/kg/injection, schedule: Q01DX009 (ip), vehicle: carboxymethylcellulose (CMC)) is 176 % of control; the T/C (dose: 11.0 mg/kg/injection, schedule: Q01DX001 (ip), vehicle: carboxymethylcellulose (CMC)) was 124 % of control. For the same molecule, the T/C runs as follows: (dose: 11.0 mg/kg/injection, schedule: Q01DX009 (ip), vehicle: carboxymethylcellulose (CMC)) 168 % of control; (dose: 11.1 mg/kg/injection, schedule: Q01DX009 (ip), vehicle: carboxymethylcellulose (CMC)) 97 % of control; (dose: 16.6 mg/kg/injection, schedule: Q01DX001 (ip), vehicle: carboxymethylcellulose (CMC)) 121 % of control; (dose: 25.0 mg/kg/injection, schedule: Q01DX001 (ip), vehicle: carboxymethylcellulose (CMC)) 166 % of control and 225 % of control; (dose: 37.5 mg/kg/injection, schedule: Q01DX001 (ip), vehicle: carboxymethylcellulose (CMC)) 94 % of control.
Take `O=C(CCN1CC=C(c2ccccc2)CC1)c1ccc(F)cc1`: the T/C (dose: 50.0 mg/kg/injection, schedule: Q01DX001 (ip), vehicle: Klucel (hydroxypropylcellulose) (HPC)) is 93 % of control and the T/C under setting [1] was 97 % of control.
With `CN(C)/N=N/c1ccn[nH]1`, the T/C (dose: 50.0 mg/kg/injection, schedule: Q01DX005 (ip), vehicle: saline) is 105 % of control.
For `CCN(CC)C(N)=O`, the T/C by setting is: (dose: 100.0 mg/kg/injection, schedule: Q01DX009 (ip), vehicle: saline) 92 % of control; (dose: 100.0 mg/kg/injection, schedule: Q04DX003 (ip), vehicle: saline) 102 % of control; (dose: 200.0 mg/kg/injection, schedule: Q01DX009 (ip), vehicle: saline) 118 % of control; (dose: 200.0 mg/kg/injection, schedule: Q04DX003 (ip), vehicle: saline) 107 % of control; (dose: 400.0 mg/kg/injection, schedule: Q01DX009 (ip), vehicle: saline) 101 % of control; (dose: 400.0 mg/kg/injection, schedule: Q04DX003 (ip), vehicle: saline) 107 % of control.
Turning to `O=C(O)Cc1cc2c(cc1I)OCO2`, the T/C was 98 % of control (dose: 100.0 mg/kg/injection, schedule: Q01DX009 (ip), vehicle: saline with Tween-80); 104 % of control (dose: 200.0 mg/kg/injection, schedule: Q01DX009 (ip), vehicle: saline with Tween-80); 109 % of control (dose: 400.0 mg/kg/injection, schedule: Q01DX009 (ip), vehicle: saline with Tween-80).
For the molecule `CCCCC(=O)N1C(=O)Cc2ccccc21`, the T/C by setting is: (dose: 50.0 mg/kg/injection, schedule: Q04DX002 (ip), vehicle: Klucel (hydroxypropylcellulose) (HPC)) 97 % of control; under setting [2], 97 % of control; under setting [3], 97 % of control.
Regarding `O=C1OCCN1C(=O)c1ccc(Cl)c(Cl)c1`, the T/C is 97 % of control (dose: 25.0 mg/kg/injection, schedule: Q01DX007 (ip), vehicle: Klucel (hydroxypropylcellulose) (HPC)); 95 % of control (dose: 50.0 mg/kg/injection, schedule: Q01DX007 (ip), vehicle: Klucel (hydroxypropylcellulose) (HPC)); 100 % of control under setting [1]; 100 % of control (dose: 100.0 mg/kg/injection, schedule: Q01DX007 (ip), vehicle: Klucel (hydroxypropylcellulose) (HPC)); 94 % of control under setting [4]; 95 % of control under setting [5]. The T/C under setting [6] was 94 % of control; the T/C (dose: 200.0 mg/kg/injection, schedule: Q04DX003 (ip), vehicle: Klucel (hydroxypropylcellulose) (HPC)) is 100 % of control; the T/C under setting [7] was 96 % of control; the T/C under setting [8] is 87 % of control; the T/C (dose: 400.0 mg/kg/injection, schedule: Q04DX003 (ip), vehicle: Klucel (hydroxypropylcellulose) (HPC)) is 100 % of control.
For `CNC(=O)C1C(c2ccccc2)C1c1ccccc1` (stereo unspecified), the T/C runs as follows: under setting [2], 102 % of control; under setting [3], 97 % of control; (dose: 400.0 mg/kg/injection, schedule: Q04DX002 (ip), vehicle: Klucel (hydroxypropylcellulose) (HPC)) 94 % of control.
Consider `CCC(CC)=NNC(N)=O`, for which the T/C reads like this: (dose: 25.0 mg/kg/injection, schedule: Q04DX003 (ip), vehicle: Klucel (hydroxypropylcellulose) (HPC)) 104 % of control; (dose: 50.0 mg/kg/injection, schedule: Q04DX003 (ip), vehicle: Klucel (hydroxypropylcellulose) (HPC)) 100 % of control; under setting [5], 103 % of control and 104 % of control.
As to `CC(C)(C)c1cc(/C=C/C(=O)O)cc(C(C)(C)C)c1O`, the T/C by setting is: under setting [1], 107 % of control; under setting [6], 96 % of control; under setting [7], 90 % of control.
On to `Oc1ccc(CNc2nn[nH]n2)cc1`, for which the T/C was 94 % of control (dose: 100.0 mg/kg/injection, schedule: Q04DX003 (ip), vehicle: saline with Tween-80); 96 % of control (dose: 200.0 mg/kg/injection, schedule: Q04DX003 (ip), vehicle: saline with Tween-80); 96 % of control (dose: 400.0 mg/kg/injection, schedule: Q04DX003 (ip), vehicle: saline with Tween-80).
In the case of `CCCCCCCCC(=O)Nc1nc2nc[nH]c2c(=O)[nH]1`, the T/C reads like this: (dose: 100.0 mg/kg/injection, schedule: Q01DX001 (ip), vehicle: other) 94 % of control; under setting [4], 94 % of control; (dose: 200.0 mg/kg/injection, schedule: Q01DX001 (ip), vehicle: other) 86 % of control; (dose: 200.0 mg/kg/injection, schedule: Q01DX009 (ip), vehicle: Klucel (hydroxypropylcellulose) (HPC)) 90 % of control; (dose: 400.0 mg/kg/injection, schedule: Q01DX001 (ip), vehicle: other) 86 % of control; under setting [8], 90 % of control.
On to `CCCNC(=O)NO`, for which the T/C reads like this: (dose: 100.0 mg/kg/injection, schedule: Q01DX001 (ip), vehicle: carboxymethylcellulose (CMC)) 103 % of control; (dose: 150.0 mg/kg/injection, schedule: Q01DX009 (ip), vehicle: other) 105 % of control; (dose: 200.0 mg/kg/injection, schedule: Q01DX001 (ip), vehicle: carboxymethylcellulose (CMC)) 100 % of control; (dose: 400.0 mg/kg/injection, schedule: Q01DX001 (ip), vehicle: carboxymethylcellulose (CMC)) 105 % of control.
For the molecule `N#CCN(CC#N)CCCN(CC#N)CC#N`, the T/C (dose: 25.0 mg/kg/injection, schedule: Q01DX001 (ip), vehicle: saline with Tween-80) was 96 % of control; the T/C (dose: 50.0 mg/kg/injection, schedule: Q01DX001 (ip), vehicle: saline with Tween-80) is 102 % of control; the T/C (dose: 200.0 mg/kg/injection, schedule: Q01DX001 (ip), vehicle: saline with Tween-80) is 102 % of control and 90 % of control; the T/C (dose: 400.0 mg/kg/injection, schedule: Q01DX001 (ip), vehicle: saline with Tween-80) was 93 % of control.
Consider `O=[As](O)(O)CCCc1ccccc1`, for which the T/C reads like this: (dose: 6.25 mg/kg/injection, schedule: Q01DX009 (ip), vehicle: Klucel (hydroxypropylcellulose) (HPC)) 108 % of control; (dose: 12.5 mg/kg/injection, schedule: Q01DX009 (ip), vehicle: Klucel (hydroxypropylcellulose) (HPC)) 108 % of control.
